Measured values from PMC11460631, “Inhibition of transient receptor potential vanilloid 3 channels by antimalarial hydroxychloroquine alleviates TRPV3-dependent dermatitis” (The Journal of Biological Chemistry, 2024).

Tests used:
TRPV3 N671Q mutant = target: T1, TRPV3 N671Q mutant (Homo sapiens, UniProt Q8NET8, N671Q); test: Whole-cell recording of TRPV3 N671Q mutant; assay type: cell-based
T1 construct: YFP or GFP; expressed in transfected cells; host or cells: HEK293T
T1 sequence (Q8NET8 1-790 N671Q): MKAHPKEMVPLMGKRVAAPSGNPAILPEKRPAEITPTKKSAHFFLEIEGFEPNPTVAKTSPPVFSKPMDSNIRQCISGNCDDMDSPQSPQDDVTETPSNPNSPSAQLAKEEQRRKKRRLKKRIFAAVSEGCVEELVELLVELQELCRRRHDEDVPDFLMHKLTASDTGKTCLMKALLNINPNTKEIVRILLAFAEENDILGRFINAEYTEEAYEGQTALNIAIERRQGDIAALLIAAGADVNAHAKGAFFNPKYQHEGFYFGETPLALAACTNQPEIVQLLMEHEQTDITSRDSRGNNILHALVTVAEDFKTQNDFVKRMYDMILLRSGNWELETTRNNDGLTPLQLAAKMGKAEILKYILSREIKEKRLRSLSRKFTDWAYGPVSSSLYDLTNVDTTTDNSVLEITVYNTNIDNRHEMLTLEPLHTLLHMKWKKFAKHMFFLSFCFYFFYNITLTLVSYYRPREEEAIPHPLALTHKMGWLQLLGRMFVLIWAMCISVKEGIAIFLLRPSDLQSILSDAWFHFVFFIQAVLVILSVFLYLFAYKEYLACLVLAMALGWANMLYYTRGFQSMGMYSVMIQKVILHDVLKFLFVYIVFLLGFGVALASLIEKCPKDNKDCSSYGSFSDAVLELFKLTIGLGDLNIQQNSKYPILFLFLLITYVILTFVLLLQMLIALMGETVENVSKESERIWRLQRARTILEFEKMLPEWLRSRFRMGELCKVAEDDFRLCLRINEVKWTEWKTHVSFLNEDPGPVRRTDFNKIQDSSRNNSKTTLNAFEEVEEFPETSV
Description: As we mentioned above, HCQ may act as a pore blocker of TRPV3. To probe the binding configuration of HCQ to TRPV3, we carried out molecular docking using Rosetta suite (https://rosettacommons.org) ([21]) and validated the docking models with point mutations in TRPV3 (Fig. 4A). […] Furthermore, when we introduced L670A to L591A mutant, we also observed a left shift on the concentration–response curve on this double mutant as compared to L591A mutant (Fig. 4H).
Figure 4 Residues of the pore domain are critical for HCQ inhibition on TRPV3.A, left panel, docking model of HCQ to the pore domain of TRPV3 structure (6uw4). Right panels, top view and side view of the HCQ-binding pocket. B-J, representative whole-cell recording of TRPV3 and mutants in response to 1 mM 2-APB, the mixture of 1 mM 2-APB and concentration gradients of HCQ with the holding potential of ± 80 mV. K, concentration–response curves of HCQ in WT TRPV3 and mutants (n = 3–5 cells). L, quantification of the inhibitory ratio of HCQ (100 μM) on WT, L591A, and N671Q. […]
All data from whole-cell recordings were analyzed in Igor Pro (WaveMetrics). IC50 values were determined by fitting the Hill equation to concentration-response relationships. […]

hTRPA1 = target: T2, hTRPA1 (Homo sapiens, UniProt O75762); test: Whole-cell current recordings, hTRPA1; assay type: cell-based; conditions: 100 μM HCQ; current activated by 500 μM allyl isothiocyanate
T2 construct: YFP or GFP; expressed in transfected cells; host or cells: HEK293T
T2 sequence (O75762 whole entry): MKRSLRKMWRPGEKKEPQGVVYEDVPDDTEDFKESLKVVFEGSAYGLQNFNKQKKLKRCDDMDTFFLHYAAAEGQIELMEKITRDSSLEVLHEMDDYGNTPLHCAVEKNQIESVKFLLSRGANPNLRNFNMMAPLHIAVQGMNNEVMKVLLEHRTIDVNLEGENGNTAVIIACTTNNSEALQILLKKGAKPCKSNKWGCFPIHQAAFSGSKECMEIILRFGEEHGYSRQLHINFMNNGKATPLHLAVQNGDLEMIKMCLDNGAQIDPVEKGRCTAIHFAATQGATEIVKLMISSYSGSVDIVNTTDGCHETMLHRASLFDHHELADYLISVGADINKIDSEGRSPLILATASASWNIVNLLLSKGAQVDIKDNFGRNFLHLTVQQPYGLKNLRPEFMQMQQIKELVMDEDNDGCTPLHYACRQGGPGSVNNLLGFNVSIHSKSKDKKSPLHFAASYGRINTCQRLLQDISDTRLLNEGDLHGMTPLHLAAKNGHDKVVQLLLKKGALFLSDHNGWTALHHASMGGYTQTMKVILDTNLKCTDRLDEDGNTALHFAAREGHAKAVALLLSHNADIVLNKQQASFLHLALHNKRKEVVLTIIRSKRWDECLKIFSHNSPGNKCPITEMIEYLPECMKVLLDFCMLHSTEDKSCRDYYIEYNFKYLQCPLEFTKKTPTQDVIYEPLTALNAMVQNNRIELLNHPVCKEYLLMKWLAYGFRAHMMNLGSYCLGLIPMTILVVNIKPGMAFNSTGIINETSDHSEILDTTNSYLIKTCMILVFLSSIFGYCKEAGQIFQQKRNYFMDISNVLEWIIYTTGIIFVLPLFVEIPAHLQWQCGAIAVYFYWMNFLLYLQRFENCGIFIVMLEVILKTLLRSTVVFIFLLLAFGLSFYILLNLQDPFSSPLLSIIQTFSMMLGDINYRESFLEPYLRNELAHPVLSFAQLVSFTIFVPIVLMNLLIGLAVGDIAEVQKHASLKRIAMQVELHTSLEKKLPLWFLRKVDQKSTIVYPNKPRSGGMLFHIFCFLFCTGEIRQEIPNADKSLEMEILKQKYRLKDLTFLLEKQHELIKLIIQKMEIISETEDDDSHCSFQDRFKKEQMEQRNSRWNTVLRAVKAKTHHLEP
Method: To elucidate the specificity of HCQ inhibition on TRPV3, we conducted whole-cell current recordings on other known pruritus-related TRP channels, such as hTRPA1, mTRPV1, mTRPV4, and mTRPM8 (Fig. 3, A and F). […] Because of the relatively larger inhibition of HCQ on mTRPM8 current, we tested the concentration dependence of HCQ on mTRPM8 channels.
HEK293T cells are cultured using Dulbecco's modified Eagle's medium containing 10% fetal bovine serum and 1% penicillin-streptomycin in a cell incubator with 5% CO2 at 37 °C. Plasmids of murine TRPV1, TRPV4, TRPM8, and human TRPV3, TRPA1 are labeled with YFP or GFP as indicators for subsequent electrophysiological recordings. Complementary DNA constructs of ion channels were transiently transfected with Lipofectamine 3000 (Invitrogen). And 12 to 18 h after transient transfection, electrophysiological recordings were performed.
Patch-clamp recordings were carried out with a HEKA EPC10 amplifier controlled by PatchMaster software (HEKA; https://www.heka.com/products/products_main.html#soft_pm) ([36]). Patch pipettes were prepared from borosilicate glass and fire-polished to the resistance of 3 to 8 MΩ by P-97 puller for whole-cell recordings. For single-channel recordings, patch pipettes were fire-polished to a higher resistance of 6 to 10 MΩ. […]

inhibition at 100 µM (TRPV3 N671Q mutant; 100 μM HCQ): 27.8% | IC50 (TRPV3 N671Q mutant; 1 mM 2-APB, ± 80 mV): 133 ± 8.6 µM | reduction of hTRPA1 current (hTRPA1): 11.37% ± 4.10%
SMILES: CCN(CCO)CCCC(C)Nc1ccnc2cc(Cl)ccc12 (stereo not drawn) [HCQ, hydroxychloroquine]
